The record followed here is patent US20240366543A1, “METHODS OF TREATING METHYLMALONIC ACIDEMIA AND PROPIONIC ACIDEMIA” (HemoShear Therapeutics, Inc., priority 2021, published 2024).

The data set in a line: Phase 2 study preliminary plasma pharmacokinetics in PA/MMA subjects. The format is in vivo, human. Particulars: dose range of 1 mg/kg to 30 mg/kg, once or twice daily. As to the method: Part A is the dose escalation phase to assess the initial safety and to confirm the pharmacologic activity of Compound 5 in subjects with PA and MMA. Screening for eligibility took place within 28 days of enrollment. All subjects were initially evaluated during a 4-week run-in period followed by within-subject dose escalation of 3 doses (1, 3, and 10 mg/kg QD of sodium 2,2-dimethylbutanoate); dose escalation interval of 4 weeks) to check for improvement in disease-related biomarkers.
Plasma will be analyzed by liquid chromatography with tandem mass spectrometry (LC-MS/MS) with a lower limit of quantitation of 0.100 μg/mL. Samples collected for analyses of Compound 5 (plasma/serum/whole blood)] concentration may also be used to evaluate safety or efficacy aspects related to concerns arising during or after the study.
Preliminary pharmacokinetics (PK) data from the first two subjects of Study described in Examples 7-8 was evaluated at 1 mg/kg, 3 mg/kg and 10 mg/kg of Compound 5 dosed once daily (QD).

Take `CCC(C)(C)C(=O)[O-].[Na+]` [Compound 5A, 2,2-dimethylbutyric acid sodium salt]: the “Blood plasma concentrations versus dose” value is “dose proportional”.
